Reference: patent publication US7303876B2 (Applera Corporation, priority 2000, dated 2007)
Where two headings read alike, the source gives them in different places.

Assays:
[1] = system: slices of liver; experiment: Maceration of liver slices by reaction compositions at 65° C.; details: 65° C.
Experimental: Initially, a series of reaction compositions were analyzed for their ability to disaggregate a biological sample, e.g., slices of liver. These reaction compositions comprised 100 mM Tris, pH 8.0, 20 mM dithiothreitol (DTT), and optionally,1 mg/ml Proteinase K, surfactants (e.g., cationic, nonionic and anionic detergents), chaotropes, or the additive 1-methyl-2-pyrollidinone (Sigma). Each reaction compositions was placed in a tube with a slice of liver and then incubated at 65° C. The tubes were observed periodically to determine which reaction compositions were able to efficiently macerate the sample.

[2] = system: Liver tissue; experiment: Nucleic acid release from liver slices, pH 6, 45° C., 30 minutes, surfactants and additives; details: for amount of nucleic acid released in comparison with surfactant without an additive: FIG. 7
Experimental: To compare CTACl to CTAB, those two surfactants were evaluated in parallel along with hexadecyltrimethylammonium bromide (HDTAB), hexadecyltrimethylammonium chloride (HDTACl), and Sarkosyl. Three additives, phenylglyoxal, acridine orange (e.g., Sigma #A6014), and 1-methyl-2-pyrolidinone, were also evaluated. Phenylglyoxal was tested to determine if it would reduce RNAse activity. […] 1-Methyl-2-pyrrolidinone was tested to see if it would enhance solubility of the sample by various reaction compositions.
Slices of liver-tissue (100-200 mg/sample) were placed into twenty-one Eppendorf tubes. Four hundred microliters of a reaction composition, comprising 100 mM MES, pH 6, 20 mM CaCl2, and 1 mg Proteinase K, was added to each tube.
(§1) The tubes were incubated at 45° C. for 30 minutes with mixing (Eppendorf Thermomixer, Model 5436). Surfactant: protease complexes were solubilized using methods the same as or similar to those described in Example 7. Remaining tissue fragments were removed by centrifugation using methods the same as or similar to those described in Example 7. The supernatant was phenol extracted, isopropanol precipitated, and ethanol washed using methods the same as or similar to those described in Example 6.

[3] = Solubility of surfactants (0.5% Sarkosyl, LDS, SDS, CTAB; 5.0% others) in salt solutions; details: pH 6
Experimental: In certain instances, the solubility of detergents in high salt may relate to on the composition of the salt and the detergent itself. A mixing experiment was performed to examine the solubility of a variety of anionic, cationic, and nonionic surfactants in different salt compositions. […] The salt solutions contained Lil, Nal, KI, Rbl, Csl , GuSCN, GuHCl, or NaClO4, at pH 6.0 or 10.0. […] The solubility of the surfactants was scored as either soluble or insoluble. The solubility of the surfactant in the salt solution was determined initially by visual observations for cloudiness or precipitate formation. The resulting solutions were also centrifuged to verify the absence of a precipitate by the absence of a precipitate pellet.

[4] = system: Liver tissue; experiment: Liver tissue disaggregation by 1% surfactant with or without Proteinase K at 60° C.; design: Tissue Disaggregation: scale not given here; details: for Tissue Disaggregation: 60° C., 1% surfactant
Experimental: To evaluate the ability of various cationic surfactants to increase the digestion of tissue by Proteinase K, liver slices were digested using reaction compositions including one of the sixteen surfactants (shown in Table 4), both with and without Proteinase K. The reducing agent dithiothreitol (DTT) was included to evaluate the effect of reducing conditions on tissue digestion. […] One of the sixteen surfactants was added to one pair of tubes to yield a final concentration of 1% surfactant. The seventeenth pair of tubes served as non-surfactant controls. One milligram (mg) of Proteinase K was added to one tube of each of the seventeen pairs.
PK=presence or absence of Proteinase K in the reaction composition; Y=Proteinase K was present; N=Proteinase K was not present in the reaction composition.

[5] = system: Liver tissue; experiment: Integrity of nucleic acid released from liver slices with aurintricarboxylic acid, 55° C., 30 minutes; details: 1% surfactant, FIG. 11
Experimental: Slices of liver tissue (77-186 mg/sample) were placed into twenty-one Eppendorf tubes. To each tube was added 400 μL of a reaction composition comprising 50 mM MES, pH 6.0, 20 mM CaCl2, and additional components as shown in Table 10.
as §1, with “55°” for “45°”, “C.” for “C. for 30 minutes”, “5436) for 30 minutes. The resulting surfactant-protease complex was” for “5436). Surfactant: protease complexes were”, “Undigested” for “Remaining”, “precipitated” for “precipitated,”

[6] = system: Liver tissue; experiment: Nucleic acid release from liver slices, pH 6, 45° C., 20 minutes, surfactants and additives; details: with Proteinase K, FIG. 5
Experimental: The results from Example 6 indicate that there was significant nuclease activity present in the sample. To reduce the nucleolytic activity of endogenous RNAses, the pH of the reaction composition was lowered to approximately 6.0 and the incubation temperature was decreased to 45° C. Several additives, including phenylglyoxal (Aldrich #14243-3), 1-methyl-2-pyrolidinone, RNA Later (Ambion, #7020), and Streck Tissue Fixitive (Streck Laboratories, #265138) were also tested to evaluate their effect on endogenous RNAse activity in these reaction compositions. Phenylglyoxal is known to reduce ribonuclease activity (see Takahashi, The Structure And Funtion Of Ribonuclease T1. XI. Modification Of The Single Arginine Residue In Ribonuclease T1 By Phenylglyoxal And Glyoxal, J. Biochem (Japan) 68:659-664, 1970). The product literature for RNA Later claims that the reagent stabilizes RNA in tissue and Streck Tissue Fixative is believed to preserve the integrity of tissue.
Slices of liver tissue (100-200 mg/sample) were placed into nineteen Eppendorf tubes. Four hundred microliters of a reaction composition comprising 100 mM MES (Sigma #M-5287), pH 6, 20 mM CaCl2, and 1 mg Proteinase K, was added to each tube.
The tubes were incubated at 45° C. for 20 minutes with mixing (Eppendorf Thermomixer, Model 5436). […] Undigested tissue fragments were removed by centrifugation using the methods the same as or similar to those discussed in Example 6. The supernatant was phenol extracted (saturated with 10 mM Tris HCl , pH 8, 1 mM EDTA; Sigma #P-4557), isopropanol precipitated (Aldrich #19076-4), and ethanol washed using methods the same as or similar to those described in Example 6.

[7] = Solubility of 1% cationic surfactants in 5M chaotropic salt solutions containing 2% Tween 20
Description: The solubilities of several cationic surfactants were examined in different chaotropic salt solutions. The cationic surfactants examined were cetyltrimethylammonium bromide (CTAB), cetyltrimethylammonium chloride (CTACl), tetradecyltrimethylammonium bromide (TTAB), tetradecyltrimethylammonium chloride (TTACl), dodecyltrimethylammonium bromide (DTAB), dodecyltrimethylammonium (DTACl), dodecylethyidimethylammonium bromide (DEDTAB), decyltrimethylammonium bromide (D10TAB), and dodecyltriphenylphosphonium bromide (DTPB). Each of the cationic surfactants tested was presented in a 1% concentration. Each of the cationic surfactants was examined in a 5M solution of one of the chaotropic salts containing 2% Tween 20. Each cationic surfactant and salt combination was tested at pH 6 (50 mM MES), pH 8 (50 mM Tris-HCl), and pH 10 (50 mM AMP).

[8] = target: T1, Proteinase K (Parengyodontium album, UniProt P06873); experiment: Effect of surfactants on Proteinase K digestion of dye-labeled casein substrate; type: biochemical; details: 1% surfactant, 60° C., Proteinase K 0.005-20 μg/ml
T1 construct: purchased Ambion 2546
Experimental: To test the effect of cationic surfactants on the activity of Proteinase K, a series of reaction compositions were prepared as follows. Reaction compositions comprised: Casein BoDipy conjugate (1 μg, 10 ng/μL), 10 mM Tris, pH 8, 20 mM CaCl2, 1% surfactant (shown in Table 2 below) and a dilution series of Proteinase K at concentrations of 20 μg/ml, 5 μg/ml, 1.25 μg/ml, 0.31 μg/ml, 0.078 μg/ml, 0.02 μg/ml and 0.005 μg/ml. […] Reaction tubes were incubated at 60° C. in a 96-well optical plate (MicroAmp® Optical 96-Well Reaction Plate, Applied Biosystems) and the amount of released fluorescence was measured at the indicated time points using an ABI Prism 7700.

[9] = Fifteen Minutes Incubation, Proteinase K not present (N)
[10] = Fifteen Minutes Incubation, Proteinase K present (Y)
[11] = Fifty-Two Minutes Incubation, Proteinase K not present (N)
[12] = Fifty-Two Minutes Incubation, Proteinase K present (Y)
[13] = 5M chaotropic salts, 2% Tween 20

T1 sequence (P06873 106-384): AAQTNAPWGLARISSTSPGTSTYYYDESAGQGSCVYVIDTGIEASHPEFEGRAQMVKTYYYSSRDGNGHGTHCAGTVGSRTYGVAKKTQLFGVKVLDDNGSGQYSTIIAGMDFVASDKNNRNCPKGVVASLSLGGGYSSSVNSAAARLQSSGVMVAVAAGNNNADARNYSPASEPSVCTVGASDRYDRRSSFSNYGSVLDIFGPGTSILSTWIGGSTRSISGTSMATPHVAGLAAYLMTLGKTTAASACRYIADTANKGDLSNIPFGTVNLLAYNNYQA

CN1CCCC1=O [1-methyl 2-pyrrolidinone, 1-methyl-2-pyrolidinone]
maceration of liver slice ([1]; No Proteinase K, 16-24 hr, additive 2%): 0%
amount of nucleic acid released in comparison with surfactant without an additive ([2]; 10% additive with 1% CTACl): greater
amount of nucleic acid released in comparison with surfactant without an additive ([2]; 10% additive with 1% HDTAB): less

CCCCCCCCCCCCCCCC[N+](C)(C)C.[Br-] [CTAB, cetyltrimethylammonium bromide]
Solubility of surfactant [3]: S
Tissue Disaggregation [4, 9]: 0
Tissue Disaggregation [4, 10]: 4
Tissue Disaggregation [4, 11]: 0
Tissue Disaggregation [4, 12]: 4
disaggregation of the tissue sample (in words) ([4]; combination with Proteinase K, 15 and 52 minutes): total disaggregation
disaggregation of the tissue sample (in words) ([4]; surfactant alone, no Proteinase K): no apparent sample disaggregation
maceration of liver slice ([1]; 1 mg/ml Proteinase K, 16-24 hr, additive 0.1%): 100%
maceration of liver slice ([1]; 1 mg/ml Proteinase K, 16-24 hr, additive 1%): 100%
maceration of liver slice ([1]; 1 mg/ml Proteinase K, 1 hr, additive 0.1%): 100%
maceration of liver slice ([1]; 1 mg/ml Proteinase K, 1 hr, additive 1%): 100%
ability to macerate the liver sample (in words) [1]: most effectively macerated the sample
effect on the proteolytic activity of Proteinase K ([1]; liver slices): appeared to enhance the proteolytic activity of Proteinase K
nucleic acid released, surfactant in reaction composition with aurintricarboxylic acid [5]: released a large amount of high integrity nucleic acid
release of A260 absorbing material from the sample [6]: released A260 absorbing material

CCCCCCCCCCCCCCCC[N+](C)(C)C.[Cl-] [CTACl, cetyltrimethylammonium chloride]
nucleic acid released, surfactant in reaction composition with aurintricarboxylic acid [5]: released a large amount of high integrity nucleic acid
release of A260 absorbing material from the sample [6]: released A260 absorbing material
high molecular weight nucleic acid by gel electrophoresis ([2]; with either 1-methy-2-pyrolidinone or acridine orange): High molecular weight nucleic acid was also present

CCCCCCCCCCCC[N+](C)(C)CC.[Br-] [DEDTAB, dodecylethyldimethylammonium bromide]
relative solubility in chaotropic salt solutions (in words) [7, 13]: more soluble than larger surfactants

CCCCCCCCCCCC[N+](C)(C)C.[Cl-] [DTACl, dodecyltrimethylammonium chloride]
relative solubility in chaotropic salt solutions (in words) [7, 13]: more soluble than larger surfactants

CCCCCCCCCCCC[P+](c1ccccc1)(c1ccccc1)c1ccccc1.[Br-] [DTPB, dodecyltriphenylphosphonium bromide]
relative solubility in chaotropic salt solutions (in words) [7]: more soluble than larger surfactants

CCCCCCCCCCCCCCCC[N+](C)(C)C.[Br-] [Hexadecyltrimethylammonium bromide, hexadecyltrimethylammonium bromide]
Tissue Disaggregation [4, 9]: 0
Tissue Disaggregation [4, 10]: 0
Tissue Disaggregation [4, 11]: 0
Tissue Disaggregation [4, 12]: 1
high molecular weight nucleic acid by gel electrophoresis ([2]; all reaction compositions containing the surfactant, FIG. 8): high molecular weight nucleic acid was apparent

CCCCCCCCCCCCOS(=O)(=O)[O-].[Na+] [SDS, sodium dodecyl sulfate]
Tissue Disaggregation [4, 9]: 0
Tissue Disaggregation [4, 10]: 3
Tissue Disaggregation [4, 11]: 0
Tissue Disaggregation [4, 12]: 3
maceration of liver slice ([1]; 1 mg/ml Proteinase K, 2-5 hr, additive 1%): 50%
maceration of liver slice ([1]; No Proteinase K, 2-5 hr, additive 1%): 0%
effect on Proteinase K activity on the casein substrate [8]: enhances the activity of Proteinase K
nucleic acid released, surfactant in reaction composition with aurintricarboxylic acid [5]: less nucleic acid was released
release of A260 absorbing material from the sample [6]: released A260 absorbing material

CCCCCCCCCC[N+](C)(C)C.[Br-] [Sample D10TAB, decyltrimethylammonium bromide]
relative solubility in chaotropic salt solutions (in words) [7]: more soluble than larger surfactants

CCCCCCCCCCCC(=O)N(C)CC(=O)[O-].[Na+] [Sarkosyl, sodium N-lauroylsacrosinate]
maceration of liver slice ([1]; No Proteinase K, 72 hr, additive 2%): 0%
release of A260 absorbing material from the sample [6]: released A260 absorbing material
